Source: the NIST ThermoML archive (doi:10.1021/acs.jced.8b00975)
Numbers after ± are expanded uncertainties.

Experiment: xn = mol fraction of the nth substance listed
Conditions: Liquid, Vibrating tube method

C=C(C)C(=O)OCCN(C)C [2-(dimethylamino)ethyl methylpropenoate] + CCCCO
mass density [kg/m3]
Conditions | 100 kPa | 5000 kPa | 10000 kPa | 15000 kPa | 20000 kPa | 25000 kPa | 30000 kPa | 35000 kPa
293.15 K, x1 = 0.0301 | 817.21 ± 0.52 | 820.9 ± 0.52 | 824.39 ± 0.53 | 827.71 ± 0.54 | 830.88 ± 0.56 | 833.94 ± 0.57 | 836.92 ± 0.58 | 839.85 ± 0.59
293.15 K, x1 = 0.06 | 824.09 ± 0.52 | 827.83 ± 0.52 | 831.32 ± 0.53 | 834.6 ± 0.54 | 837.73 ± 0.55 | 840.76 ± 0.56 | 843.75 ± 0.58 | 846.74 ± 0.59
293.15 K, x1 = 0.1005 | 833.13 ± 0.52 | 836.85 ± 0.52 | 840.32 ± 0.53 | 843.61 ± 0.54 | 846.74 ± 0.55 | 849.77 ± 0.56 | 852.74 ± 0.57 | 855.68 ± 0.58
293.15 K, x1 = 0.1995 | 852.44 ± 0.52 | 856.11 ± 0.52 | 859.55 ± 0.53 | 862.82 ± 0.54 | 865.96 ± 0.55 | 869 ± 0.56 | 872 ± 0.56 | 875.01 ± 0.57
293.15 K, x1 = 0.2993 | 868.71 ± 0.52 | 872.37 ± 0.53 | 875.83 ± 0.53 | 879.12 ± 0.54 | 882.28 ± 0.55 | 885.36 ± 0.55 | 888.38 ± 0.56 | 891.38 ± 0.57
293.15 K, x1 = 0.4005 | 882.69 ± 0.52 | 886.4 ± 0.53 | 889.87 ± 0.53 | 893.17 ± 0.54 | 896.32 ± 0.54 | 899.39 ± 0.55 | 902.42 ± 0.56 | 905.46 ± 0.56
293.15 K, x1 = 0.4521 | 889.04 ± 0.52 | 892.7 ± 0.53 | 896.14 ± 0.53 | 899.43 ± 0.54 | 902.58 ± 0.54 | 905.66 ± 0.55 | 908.71 ± 0.56 | 911.75 ± 0.56
293.15 K, x1 = 0.499 | 894.3 ± 0.52 | 897.94 ± 0.53 | 901.38 ± 0.53 | 904.66 ± 0.54 | 907.82 ± 0.55 | 910.91 ± 0.55 | 913.96 ± 0.56 | 917.02 ± 0.56
293.15 K, x1 = 0.5494 | 899.59 ± 0.52 | 903.22 ± 0.53 | 906.66 ± 0.53 | 909.96 ± 0.54 | 913.14 ± 0.54 | 916.24 ± 0.55 | 919.29 ± 0.55 | 922.33 ± 0.56
293.15 K, x1 = 0.5994 | 904.39 ± 0.53 | 908.07 ± 0.53 | 911.52 ± 0.54 | 914.8 ± 0.54 | 917.94 ± 0.54 | 921.02 ± 0.55 | 924.09 ± 0.55 | 927.2 ± 0.56
293.15 K, x1 = 0.7005 | 913.06 ± 0.53 | 916.73 ± 0.53 | 920.19 ± 0.54 | 923.49 ± 0.54 | 926.66 ± 0.55 | 929.77 ± 0.55 | 932.85 ± 0.55 | 935.95 ± 0.56
293.15 K, x1 = 0.7989 | 920.53 ± 0.53 | 924.22 ± 0.54 | 927.7 ± 0.54 | 931.01 ± 0.55 | 934.2 ± 0.55 | 937.32 ± 0.55 | 940.42 ± 0.56 | 943.55 ± 0.56
293.15 K, x1 = 0.8992 | 927.17 ± 0.54 | 930.88 ± 0.54 | 934.38 ± 0.55 | 937.71 ± 0.55 | 940.93 ± 0.55 | 944.08 ± 0.56 | 947.2 ± 0.56 | 950.36 ± 0.56
293.15 K, x1 = 0.9293 | 928.88 ± 0.54 | 932.61 ± 0.54 | 936.14 ± 0.55 | 939.5 ± 0.55 | 942.75 ± 0.55 | 945.91 ± 0.56 | 949.02 ± 0.56 | 952.13 ± 0.56
293.15 K, x1 = 0.9592 | 930.67 ± 0.54 | 934.41 ± 0.54 | 937.96 ± 0.55 | 941.35 ± 0.55 | 944.61 ± 0.56 | 947.78 ± 0.56 | 950.89 ± 0.56 | 953.97 ± 0.56
303.15 K, x1 = 0.0302 | 809.38 ± 0.52 | 813.38 ± 0.53 | 817.11 ± 0.54 | 820.61 ± 0.55 | 823.91 ± 0.56 | 827.06 ± 0.57 | 830.08 ± 0.58 | 833.02 ± 0.6
303.15 K, x1 = 0.0602 | 816.25 ± 0.52 | 820.35 ± 0.52 | 824.12 ± 0.53 | 827.61 ± 0.54 | 830.9 ± 0.56 | 834.03 ± 0.57 | 837.07 ± 0.58 | 840.08 ± 0.59
303.15 K, x1 = 0.1007 | 825 ± 0.52 | 829.05 ± 0.52 | 832.79 ± 0.53 | 836.28 ± 0.54 | 839.57 ± 0.55 | 842.73 ± 0.56 | 845.81 ± 0.58 | 848.85 ± 0.59
303.15 K, x1 = 0.2007 | 844.03 ± 0.52 | 848.08 ± 0.53 | 851.83 ± 0.53 | 855.35 ± 0.54 | 858.69 ± 0.55 | 861.89 ± 0.56 | 865.03 ± 0.57 | 868.15 ± 0.58
303.15 K, x1 = 0.3007 | 860.04 ± 0.52 | 864.03 ± 0.53 | 867.77 ± 0.53 | 871.3 ± 0.54 | 874.67 ± 0.55 | 877.92 ± 0.56 | 881.1 ± 0.56 | 884.26 ± 0.57
303.15 K, x1 = 0.4013 | 873.63 ± 0.52 | 877.52 ± 0.53 | 881.22 ± 0.53 | 884.76 ± 0.54 | 888.16 ± 0.55 | 891.46 ± 0.55 | 894.68 ± 0.56 | 897.86 ± 0.57
303.15 K, x1 = 0.4512 | 879.59 ± 0.52 | 883.43 ± 0.53 | 887.11 ± 0.54 | 890.65 ± 0.54 | 894.08 ± 0.55 | 897.42 ± 0.55 | 900.69 ± 0.56 | 903.91 ± 0.57
303.15 K, x1 = 0.5007 | 885.03 ± 0.52 | 888.88 ± 0.53 | 892.55 ± 0.54 | 896.09 ± 0.54 | 899.51 ± 0.55 | 902.86 ± 0.55 | 906.16 ± 0.56 | 909.45 ± 0.56
303.15 K, x1 = 0.5502 | 890.11 ± 0.53 | 894.02 ± 0.53 | 897.73 ± 0.54 | 901.29 ± 0.54 | 904.73 ± 0.55 | 908.09 ± 0.55 | 911.42 ± 0.56 | 914.74 ± 0.56
303.15 K, x1 = 0.6045 | 895.25 ± 0.53 | 899.16 ± 0.53 | 902.88 ± 0.54 | 906.44 ± 0.54 | 909.9 ± 0.55 | 913.27 ± 0.55 | 916.62 ± 0.56 | 919.96 ± 0.56
303.15 K, x1 = 0.7005 | 903.5 ± 0.53 | 907.36 ± 0.53 | 911.08 ± 0.54 | 914.68 ± 0.54 | 918.19 ± 0.55 | 921.62 ± 0.55 | 925.01 ± 0.56 | 928.36 ± 0.56
303.15 K, x1 = 0.8026 | 911.12 ± 0.53 | 914.97 ± 0.54 | 918.68 ± 0.54 | 922.29 ± 0.55 | 925.8 ± 0.55 | 929.26 ± 0.56 | 932.68 ± 0.56 | 936.08 ± 0.56
303.15 K, x1 = 0.9026 | 917.53 ± 0.54 | 921.4 ± 0.54 | 925.14 ± 0.55 | 928.77 ± 0.55 | 932.32 ± 0.56 | 935.81 ± 0.56 | 939.25 ± 0.56 | 942.69 ± 0.57
303.15 K, x1 = 0.9303 | 919.17 ± 0.54 | 923.07 ± 0.54 | 926.83 ± 0.55 | 930.48 ± 0.55 | 934.04 ± 0.56 | 937.53 ± 0.56 | 940.98 ± 0.56 | 944.42 ± 0.57
303.15 K, x1 = 0.9616 | 921.02 ± 0.54 | 924.91 ± 0.55 | 928.67 ± 0.55 | 932.32 ± 0.55 | 935.89 ± 0.56 | 939.4 ± 0.56 | 942.88 ± 0.57 | 946.34 ± 0.57
313.15 K, x1 = 0.0302 | 801.72 ± 0.52 | 805.93 ± 0.53 | 809.83 ± 0.54 | 813.46 ± 0.55 | 816.91 ± 0.56 | 820.24 ± 0.57 | 823.51 ± 0.59 | 826.8 ± 0.6
313.15 K, x1 = 0.0603 | 808.58 ± 0.52 | 812.75 ± 0.53 | 816.62 ± 0.54 | 820.25 ± 0.55 | 823.69 ± 0.56 | 827.01 ± 0.57 | 830.28 ± 0.59 | 833.54 ± 0.6
313.15 K, x1 = 0.1019 | 817.15 ± 0.52 | 821.38 ± 0.53 | 825.29 ± 0.54 | 828.95 ± 0.55 | 832.41 ± 0.56 | 835.74 ± 0.57 | 839 ± 0.58 | 842.24 ± 0.59
313.15 K, x1 = 0.2001 | 835.66 ± 0.52 | 839.79 ± 0.53 | 843.65 ± 0.53 | 847.3 ± 0.54 | 850.79 ± 0.55 | 854.16 ± 0.56 | 857.46 ± 0.57 | 860.72 ± 0.58
313.15 K, x1 = 0.301 | 851.41 ± 0.52 | 855.57 ± 0.53 | 859.51 ± 0.53 | 863.24 ± 0.54 | 866.8 ± 0.55 | 870.21 ± 0.56 | 873.49 ± 0.57 | 876.67 ± 0.58
313.15 K, x1 = 0.3999 | 864.54 ± 0.52 | 868.7 ± 0.53 | 872.64 ± 0.54 | 876.4 ± 0.54 | 880 ± 0.55 | 883.45 ± 0.56 | 886.78 ± 0.57 | 890.02 ± 0.57
313.15 K, x1 = 0.4519 | 870.67 ± 0.52 | 874.82 ± 0.53 | 878.78 ± 0.54 | 882.54 ± 0.54 | 886.15 ± 0.55 | 889.61 ± 0.56 | 892.94 ± 0.56 | 896.17 ± 0.57
313.15 K, x1 = 0.5002 | 875.94 ± 0.53 | 880.09 ± 0.53 | 884.04 ± 0.54 | 887.81 ± 0.54 | 891.43 ± 0.55 | 894.9 ± 0.56 | 898.25 ± 0.56 | 901.51 ± 0.57
313.15 K, x1 = 0.5505 | 881.12 ± 0.53 | 885.27 ± 0.53 | 889.22 ± 0.54 | 893.01 ± 0.54 | 896.64 ± 0.55 | 900.13 ± 0.56 | 903.49 ± 0.56 | 906.74 ± 0.57
313.15 K, x1 = 0.6004 | 885.84 ± 0.53 | 890.02 ± 0.53 | 894 ± 0.54 | 897.79 ± 0.54 | 901.42 ± 0.55 | 904.91 ± 0.56 | 908.27 ± 0.56 | 911.52 ± 0.57
313.15 K, x1 = 0.701 | 894.49 ± 0.53 | 898.55 ± 0.53 | 902.51 ± 0.54 | 906.34 ± 0.55 | 910.04 ± 0.55 | 913.62 ± 0.56 | 917.04 ± 0.56 | 920.32 ± 0.57
313.15 K, x1 = 0.8004 | 901.91 ± 0.53 | 905.99 ± 0.54 | 909.92 ± 0.54 | 913.71 ± 0.55 | 917.39 ± 0.55 | 920.98 ± 0.56 | 924.48 ± 0.56 | 927.93 ± 0.57
313.15 K, x1 = 0.9 | 908.36 ± 0.54 | 912.45 ± 0.54 | 916.43 ± 0.55 | 920.31 ± 0.55 | 924.08 ± 0.56 | 927.72 ± 0.56 | 931.24 ± 0.57 | 934.63 ± 0.57
313.15 K, x1 = 0.9322 | 910.31 ± 0.54 | 914.45 ± 0.54 | 918.45 ± 0.55 | 922.31 ± 0.56 | 926.03 ± 0.56 | 929.63 ± 0.56 | 933.11 ± 0.57 | 936.46 ± 0.57
313.15 K, x1 = 0.9608 | 911.98 ± 0.54 | 916.12 ± 0.55 | 920.11 ± 0.55 | 923.96 ± 0.56 | 927.68 ± 0.56 | 931.27 ± 0.57 | 934.75 ± 0.57 | 938.13 ± 0.57
